Assay results: patent US20110124745A1, “Switchable Anionic Surfactants and Methods of Making and Using Same” (priority 2009, published 2011)

Tests used:
Assay type in all cases: physicochemical
[1] = Surface tension studies (tensiometer measurements)
Description: A stock solution of compound (1A) was prepared by combining 0.460 g (1.559 mmol) of octyl 4-hydroxy-3-nitrobenzoate (1N) and 1.36 g (12.83 mmol) of Na2CO3 in 160 mL of deionized H2O. The resultant solution was homogenized by sonication for 2 min using a sonicating machine (model […], available from Fisher Scientific, Ottawa, Canada). 10 mL of the homogeneous solution was transferred into each of thirteen vials (13×10 mL, vial numbers: 1, 2, 2*, 3, 4, 5, 6, 7, 8, 9, 10, 11 and 12). The levels of solution in all the vials were marked using a marker pen on the outside of the vials. A stir bar was introduced in vials 2* through 12.
The solutions in each vial were turned OFF and back ON according to Table 1. […] In vials 2 and 2*, the surfactant was turned OFF. In vial 2*, following the OFF-turning, the uncapped vial contents were stirred at room temperature for 48 h.
Vials (other than vial 2*) were left at room temperature for 18 h prior to surface tension measurements. Where necessary, water was added to the vials until the total volume matched the original marked levels.
The contents of vials with even numbers (OFF) were filtered by passing them through a Kimwipe™ plug in a pipette to obtain a clear solution.
Surface tension for all solutions was measured in triplicate. The three values of surface tension for each solution remained within ±1 dynes/cm indicating good reproducibility. The tensiometer (Surface Tensiomat 21, Model 14814, available from Fischer Scientific, Ottawa, Canada) was calibrated using deionized water. The initial value of 72 dynes/cm obtained for water was acceptable within experimental error.

[2] = pKa of the protonated (neutral) form
[3] = Switching from (1N) to (1A) using exposure to air; conditions: D2O with Na2CO3, uncapped, stirred at room temperature, 90 min
Description: A solution of anionic surfactant (1A) was prepared by combining octyl 4-hydroxy-3-nitrobenzoate (1N) (0.023 g) and Na2CO3 (0.068 g) in 8.0 mL of D2O. The resultant solution was homogenized by sonication for 2 min. Aliquots (1.00 mL) of this solution were transferred by Hamilton syringe with a least count of 0.005 mL, into three different vials, which were labeled as vials A, B and C. Visual observations were made of vials A, B and C after 0, 30 and 90 min of stirring at room temperature under separate conditions as described below and are presented in FIG. 3A, 3B and 3C, respectively. […] The solution in vial A remained in the ON form (1A) throughout the experiment and it appeared as a yellow homogeneous solution that was free of any solids. A magnetic stir bar was introduced in vials B and C. The surfactant solutions in vials B and C were turned OFF by allowing a stream of CO2 provided by a needle to blow, CO2 at the surface of the solutions (the needle was not allowed to dip or touch the surface of the solution). Vial C was then capped and its cap was supplemented by […]™ to inhibit CO2 leakage. Thus at the beginning of this experiment, which is pictured in FIG. 3A, vial A held a solution in the ON form, and vials B and C held a solution in the OFF form. Vial B was then uncapped and stirred under passive exposure to air. Vial C was stirred under a passive CO2 headgas. […]

Row | Average surface tension ([1]; 1.559 mmol (1N) + 12.83 mmol Na2CO3 in 160 mL water, vial 1, control, never switched (ON)) | average value of the surface tension over the ON vials ([1]; ON form, vials 1, 3, 5, 7, 9, 11) | Average surface tension ([1]; vial 2*: turned OFF, then stirred uncapped at room temperature for 48 h) | pKa [2] | average value of the surface tension over the OFF vials ([1]; OFF form, vials 2, 4, 6, 8, 10, 12) | conversion of OFF form to ON form by passive exposure to air [3] | SMILES
1 | 35 dynes/cm | 34 dynes/cm | 35 dynes/cm |  |  |  | CCCCCCCCOC(=O)c1ccc(O)c([N+](=O)[O-])c1 [compound (1A), 2-nitro-4-(octyloxycarbonyl)phenolate]
2 |  |  |  | ~5.5 | 61 dynes/cm | passive exposure to air is sufficient | CCCCCCCCOC(=O)c1ccc(O)c([N+](=O)[O-])c1 [compound (1N), octyl 4-hydroxy-3-nitrobenzoate]
